# Laboratory results as given in patent US20230372375A1, “SGLT-2 INHIBITOR SARCOSINE CO-CRYSTAL, PREPARATION METHOD THEREFOR AND USE THEREOF” (Beijing Creatron Institute of Pharmaceutical Research Co. …, priority 2020, published 2023).
# Several values for one entry are separate records, joined by “and”; a condition that tells them apart may be missing. Equal entries are not always repeated. Where two headings read alike, the source gives them in different places.
# Tests used:
# [1] = Influencing factors test (physical and chemical stability) of canagliflozin crystal forms, Test Example 2; format: physicochemical; set-up: Impurity RRT0.73 content / Impurity RRT0.93 content / Impurity RRT1.12 content / Impurity RRT1.17 content / Impurity RRT2.25 content / Impurity RRT2.28 content / Impurity RRT0.57 content / Impurity RRT0.67 content: unit not given here
# Protocol: The canagliflozin-sarcosine cocrystal and canagliflozin hemihydrate (original crystal form) were tested for influencing factors.
# [2] = 1 g cannot be dissolved in 10000 ml; cited from earlier work
# [3] = RH80%/25° C. 24 h
# [4] = Water, 25° C., 24 h
# [5] = physchem; details: thermodynamic from solid
# [6] = Comparison of sieving performance; details: 30 g, 80 mesh sieve, 1400 rpm, 20 minutes
# [7] = Particle size by laser particle size analyzer; details: water as a dispersant
# [8] = Fluidity (angle of repose, bulk density, tap density); details: BT-1000 powder comprehensive property tester
# [9] = Influencing factors test (physical and chemical stability) of dapagliflozin crystal forms, Test Example 1
# [10] = Directly exposed at 60° C. for 10 days
# [11] = Directly exposed at 5000 LX for 10 days
# [12] = Directly exposed at RH75% for 10 days
# [13] = artificial gastric juice, 25 °C, simulated gastric fluid
# [14] = artificial intestinal juice, 25 °C, fassgf or other biorelevant
# [15] = citrate buffer of pH 3.0, 25 °C, pH 3, aqueous buffer
# [16] = hydrochloric acid of pH 1.0, 25 °C, pH 1, simulated gastric fluid
# [17] = phosphate buffer, 25 °C, pH 6.8, aqueous buffer
# [18] = 60° C., directly exposed 10 days
# [19] = Light irradiation of 5000 Lx, 10 days
compound,measurement,setting,value
Cc1ccc([C@@H]2O[C@H](CO)[C@@H](O)[C@H](O)[C@H]2O)cc1Cc1ccc(-c2ccc(F)cc2)s1.O [canagliflozin hemihydrate],Impurity RRT0.57 content,[1]; 0 day,0.01
same,Impurity RRT0.67 content,[1]; 0 day,0.01
same,Impurity RRT0.93 content,[1]; 0 day,0.01
same,Impurity RRT1.17 content,[1]; 0 day,0.01
same,Impurity RRT2.25 content,[1]; 0 day,0.01
same,Impurity RRT2.28 content,[1]; 0 day,0.01
same,Number of impurities,[1]; 0 day,6
same,Property (appearance),[1]; 0 day,White
same,Total content of impurities,[1]; 0 day,0.06%
same,Impurity RRT0.57 content,[1]; [10],0.01
same,Impurity RRT0.67 content,[1]; [10],0.01
same,Impurity RRT0.93 content,[1]; [10],0.01
same,Impurity RRT1.17 content,[1]; [10],0.01
same,Impurity RRT2.25 content,[1]; [10],0.01
same,Impurity RRT2.28 content,[1]; [10],0.01
same,Number of impurities,[1]; [10],6
same,Property (appearance),[1]; [10],White
same,Total content of impurities,[1]; [10],0.05%
same,Impurity RRT0.57 content,[1]; [11],0.02
same,Impurity RRT0.73 content,[1]; [11],0.01
same,Impurity RRT0.93 content,[1]; [11],0.01
same,Impurity RRT1.12 content,[1]; [11],0.01
same,Impurity RRT1.17 content,[1]; [11],0.01
same,Impurity RRT2.25 content,[1]; [11],0.01
same,Impurity RRT2.28 content,[1]; [11],0.01
same,Number of impurities,[1]; [11],7
same,Property (appearance),[1]; [11],White
same,Total content of impurities,[1]; [11],0.08%
same,Impurity RRT0.57 content,[1]; [12],0.01
same,Impurity RRT0.67 content,[1]; [12],0.01
same,Impurity RRT0.93 content,[1]; [12],0.02
same,Impurity RRT1.17 content,[1]; [12],0.01
same,Impurity RRT2.25 content,[1]; [12],0.01
same,Impurity RRT2.28 content,[1]; [12],0.01
same,Number of impurities,[1]; [12],6
same,Property (appearance),[1]; [12],White
same,Total content of impurities,[1]; [12],0.07%
same,Weight gained,[1]; high humidity of RH75% for 10 days,about 2.1%
same,Weight lost,[1]; high temperature of 60° C. for 10 days,about 1.0%
same,New impurities detected (number),[1]; light irradiation of 5000LX for 10 days,1
same,Solubility in water,[2],almost insoluble in water
CCOc1ccc(Cc2cc([C@@H]3O[C@H](CO)[C@@H](O)[C@H](O)[C@H]3O)ccc2Cl)cc1 [dapagliflozin-sarcosine cocrystal],Hygroscopicity,[3],does not have hygroscopicity
same,Percentage of weight gain (%),[3],0.00%
same,Solubility,[4],1.59 mg/mL
same,solubility at 12 h,"[5]; acetate buffer of pH 4.0, 25 °C, pH 4, aqueous buffer",1.64 mg/mL
same,solubility at 24 h,"[5]; acetate buffer, 25 °C, pH 4, aqueous buffer",1.62 mg/mL
same,Solubility,"[5]; aqueous media of different pH, 25 °C, aqueous buffer",1.4 to 1.6 mg/mL
same,solubility at 12 h,[5]; [13],1.56 mg/mL
same,solubility at 24 h,[5]; [13],1.55 mg/mL
same,solubility at 12 h,[5]; [14],1.4 mg/mL
same,solubility at 24 h,[5]; [14],1.43 mg/mL
same,solubility at 12 h,[5]; [15],1.62 mg/mL
same,solubility at 24 h,[5]; [15],1.61 mg/mL
same,solubility at 12 h,[5]; [16],1.6 mg/mL
same,solubility at 24 h,[5]; [16],1.56 mg/mL
same,solubility at 12 h,[5]; [17],1.58 mg/mL
same,solubility at 24 h,[5]; [17],1.58 mg/mL
same,Average yield (%) after sieving,[6],91.8%
same,Situations after sieving,[6],Almost no large particles on the
same,"Yield after sieving (%, n = 3), single runs",[6],"93.6, % and 90.5, % and 91.3%"
same,D10 (μm),[7],5.151 μm
same,D50 (μm),[7],24.83 μm
same,D90 (μm),[7],89.93 μm
same,Angle of repose (°),[8],40 °
same,Bulk density,[8],0.40 g/mL
same,Tap density,[8],0.58 g/mL
same,"Impurity 10 (RT 33.01 min, RRT 1.61) content",[9]; 0 day,0.03
same,"Impurity 11 (RT 33.72 min, RRT 1.65) content",[9]; 0 day,0.01
same,"Impurity 12 (RT 34.69 min, RRT 1.69) content",[9]; 0 day,0.03
same,"Impurity 13 (RT 39.10 min, RRT 1.91) content",[9]; 0 day,0.01
same,Number of impurities,[9]; 0 day,4
same,Property (appearance),[9]; 0 day,White
same,Total content of impurities (%),[9]; 0 day,0.07%
same,"Impurity 10 (RT 33.01 min, RRT 1.61) content",[9]; [18],0.02
same,"Impurity 11 (RT 33.72 min, RRT 1.65) content",[9]; [18],0.01
same,"Impurity 12 (RT 34.69 min, RRT 1.69) content",[9]; [18],0.02
same,"Impurity 13 (RT 39.10 min, RRT 1.91) content",[9]; [18],0.01
same,Number of impurities,[9]; [18],4
same,Property (appearance),[9]; [18],White
same,Total content of impurities (%),[9]; [18],0.06%
same,"Impurity 10 (RT 33.01 min, RRT 1.61) content",[9]; [19],0.02
same,"Impurity 11 (RT 33.72 min, RRT 1.65) content",[9]; [19],0.01
same,"Impurity 12 (RT 34.69 min, RRT 1.69) content",[9]; [19],0.02
same,"Impurity 13 (RT 39.10 min, RRT 1.91) content",[9]; [19],0.01
same,Number of impurities,[9]; [19],4
same,Property (appearance),[9]; [19],White
same,Total content of impurities (%),[9]; [19],0.05%
same,"Impurity 10 (RT 33.01 min, RRT 1.61) content","[9]; RH75%, 10 days",0.02
same,"Impurity 11 (RT 33.72 min, RRT 1.65) content","[9]; RH75%, 10 days",0.01
same,"Impurity 12 (RT 34.69 min, RRT 1.69) content","[9]; RH75%, 10 days",0.02
same,"Impurity 13 (RT 39.10 min, RRT 1.91) content","[9]; RH75%, 10 days",0.01
same,Number of impurities,"[9]; RH75%, 10 days",4
same,Property (appearance),"[9]; RH75%, 10 days",White
same,Total content of impurities (%),"[9]; RH75%, 10 days",0.06%
same,"Number of impurities detected and total content of impurities detected, change","[9]; all the test conditions, 10 days vs 0 day",did not increase
same,Crystal form stability (XRPD),"[9]; each influencing factor (60° C., 5000LX, RH75%) for 10 days vs 0 day",did not change
